Where “and” joins values, the source holds several entries; their conditions need not be identical. Equal values may be shown once. Marks after values point to notes of the source that are not given here.
Experiments:
type 2 diabetic subjects [1] = assay: Phase 2 randomized, placebo-controlled 16-week trial of weekly, biweekly and monthly albiglutide: glycemic efficacy (A1C, FPG, weight); type: in vivo, human; settings: for A1C change from baseline (mean) / FPG change from baseline (mean) / Subjects achieving A1C < 7.0% / A1C reduction compared with placebo (ANCOVA model) / FPG change from baseline compared with placebo: week 16; for FPG reduction in background metformin (MET) subjects: after 16 weeks; for Weight loss: across albiglutide groups
From the text: Main outcome measure was change from baseline A1C, week 16 vs placebo.
Men and women of non-childbearing potential from 18-75 years of age were eligible for inclusion if diagnosed with type 2 diabetes ≧3 months before screening. Subjects were drug-naïve (diet & exercise) or treated with diet and exercise plus metformin as monotherapy stable for >3 months before prescreening (1 week prior to screening visit). […] Additional inclusion criteria included: BMI≧20 and ≦40 kg/m^2 and A1C at screening ≧7% and ≦10%.
A1C and fasting plasma glucose (FPG) measurements were performed at Screening, Baseline, and at Weeks 2 (FPG Only), 4, 5, 7, 8, 9, 12, 15, and 16.
The primary efficacy endpoint was change from baseline A1C at week 16 vs placebo across different doses within each schedule (weekly, biweekly, and monthly). The primary analysis was an ANCOVA model with main effects for treatment group and prior metformin therapy, adjusting for baseline A1C. Dose response was evaluated using contrasts within the ANCOVA model framework. Pairwise comparisons were performed in the same ANCOVA model. Secondary endpoints were analyzed similarly. Responder analysis and incidence of hypoglycemia were summarized by group statistics. […] Safety and tolerability data were collected categorically.
(§1) Comparisons were made on the intent-to-treat population, defined as all randomly assigned subjects with at least one post-baseline assessment of the primary endpoint, using last-observation carried forward. The safety population included all randomized patients who received at least one dose of any medication after being randomized. An interim analysis was conducted at 8 weeks for administrative purposes by an independent statistical analysis group; blinding was retained for study investigators and study personnel with daily operational responsibility.
Patients were also assessed for reduction in fasting plasma glucose (FPG) and HbA1c reduction based on background metformin (MET) treatment.

type 2 diabetic subjects [2] = tested on: type 2 diabetic subjects; design: species or system human; settings: in vivo
Experimental: (§2) Adverse event assessments and safety analyses (including electrocardiograms, vital sign measurements and physical exams) were conducted throughout the study. Nausea and vomiting were monitored for occurrence and duration. Immunogenicity assessments were performed with samples taken at baseline and at weeks 1, 4, 8, and 12, and 16. […] Population PK analysis was performed using a nonlinear mixed-effect modelling approach with NONMEM software (Icon Development Solutions, Ellicott City, Md.).
as §1
Gastrointestinal (GI) adverse events may limit adherence to GLP-1 therapies.

[3] = tested on: anti-albiglutide antibodies; assay: Phase 2 trial: immunogenicity, anti-albiglutide antibodies via ELISA; type: in vivo, human
Experimental: as §2, with “16. Samples were screened for anti-albiglutide antibodies via ELISA (Matthews, et al. J Clin Endocrinol Metab. 2008; DOI: 10.1210/jc.2008-1518).” for “16.”
An 11-week post-treatment washout period was included to monitor development of anti-albiglutide antibodies. […] The appearance of anti-albiglutide antibodies was largely transient, with 1 subject remaining positive at week 27. […] There was no obvious association between presence of anti-albiglutide antibodies and either efficacy or safety.

[4] = Phase 2 trial: pharmacokinetics of albiglutide (plasma ELISA, population PK with NONMEM); type: in vivo, human
Experimental: as §2, with “16. Samples were screened for anti-albiglutide antibodies via ELISA (Matthews, et al. J Clin Endocrinol Metab. 2008; DOI: 10.1210/jc.2008-1518).” for “16.”

[5] = tested on: Japanese subjects with type 2 diabetes; assay: 28-day single-blind placebo-controlled study in Japanese subjects: pharmacodynamics (FPG, AUC0-4 glucose, A1C); type: in vivo, human
[6] = 28-day study in Japanese subjects: pharmacokinetics; type: in vivo, human; settings: sc abdomen
Experimental: (§3) In the 100 mg monthly group, most common AEs were flatulence (n=3, 38%), vomiting (n=3, 38%) and nausea (n=2, 25%).

[7] = tested on: Japanese subjects with type 2 diabetes; assay: 28-day study in Japanese subjects: safety/tolerability; type: in vivo, human
Experimental: as §3

[8] = Baggio, et al. Diabetes 53:2492-2500, 2004; cited from earlier work
[9] = 30 mg weekly sc, listed as albiglutide
[10] = 50 mg biweekly sc, listed as ALB
[11] = 50 mg biweekly sc, listed as albiglutide
[12] = 100 mg monthly sc, listed as ALB
[13] = 100 mg monthly sc, listed as albiglutide

Albiglutide: Long-acting GLP-1 receptor agonist: two DPP-4-resistant human GLP-1 analogs (GLP-1(7-36)(A8G)) fused to human albumin; SEQ ID NO:1
A1C change from baseline (mean) (type 2 diabetic subjects [1]; 4 mg weekly sc): −0.11%
FPG change from baseline (mean) (type 2 diabetic subjects [1]; 4 mg weekly sc): -0.47 ± 3.1 mmol/L
Subjects achieving A1C < 7.0% (type 2 diabetic subjects [1]; 4 mg weekly sc): 17.6%
A1C change from baseline (mean) (type 2 diabetic subjects [1]; 4 mg weekly sc, listed as ALB): −0.1 ± 1.2%
A1C change from baseline (mean) (type 2 diabetic subjects [1]; 15 mg biweekly sc): −0.56%
FPG change from baseline (mean) (type 2 diabetic subjects [1]; 15 mg biweekly sc): -1.28 ± 2.4 mmol/L
Subjects achieving A1C < 7.0% (type 2 diabetic subjects [1]; 15 mg biweekly sc): 26.7%
A1C change from baseline (mean) (type 2 diabetic subjects [1]; 15 mg biweekly sc, listed as ALB): −0.6 ± 1.0%
A1C change from baseline (mean) (type 2 diabetic subjects [1]; 15 mg weekly sc): −0.49%
FPG change from baseline (mean) (type 2 diabetic subjects [1]; 15 mg weekly sc): -0.72 ± 1.7 mmol/L
A1C change from baseline (mean) (type 2 diabetic subjects [1]; 15 mg weekly sc, listed as ALB): −0.5 ± 0.7%
A1C change from baseline (mean) (type 2 diabetic subjects [1]; 30 mg biweekly sc): −0.79 ± %
FPG change from baseline (mean) (type 2 diabetic subjects [1]; 30 mg biweekly sc): -1.58 ± 2.1 mmol/L
Subjects achieving A1C < 7.0% (type 2 diabetic subjects [1]; 30 mg biweekly sc): 50.0%
A1C change from baseline (mean) (type 2 diabetic subjects [1]; 30 mg biweekly sc, listed as ALB): −0.8 ± 1.0 %
MET patients achieving HbA1c <7% (type 2 diabetic subjects [1]; 30 mg weekly): 43%
A1C change from baseline (mean) (type 2 diabetic subjects [1]; 30 mg weekly sc): −0.87 ± %
A1C change from baseline (mean) (type 2 diabetic subjects [1]; 30 mg weekly sc, listed as ALB): −0.9 ± 0.7 %
FPG change from baseline (mean) (type 2 diabetic subjects [1]; 30 mg weekly sc, listed as ALB): -1.44 ± 2.0 mmol/L
Subjects achieving A1C < 7.0% (type 2 diabetic subjects [1]; 30 mg weekly sc, listed as ALB): 51.7%
A1C change from baseline (mean) (type 2 diabetic subjects [1]; [9]): −0.87% and −0.9%
FPG change from baseline (mean) (type 2 diabetic subjects [1]; [9]): -1.44 mmol/L
Subjects achieving A1C < 7.0% (type 2 diabetic subjects [1]; [9]): 52%
HbA1c reduction in MET subjects (type 2 diabetic subjects [1]; 30 mg weekly, 16 weeks): −0.78%
FPG reduction in background metformin (MET) subjects (type 2 diabetic subjects [1]; 30 mg weekly): -1.26 mmol/L
A1C reduction compared with placebo (ANCOVA model) (type 2 diabetic subjects [1]; 30 mg weekly): −0.62%
FPG change from baseline compared with placebo (type 2 diabetic subjects [1]; 30 mg weekly): -1.38 mmol/L
MET patients achieving HbA1c <7% (type 2 diabetic subjects [1]; 50 mg biweekly): 50%
A1C change from baseline (mean) (type 2 diabetic subjects [1]; 50 mg biweekly sc): −0.79 ± %
A1C change from baseline (mean) (type 2 diabetic subjects [1]; [10]): −0.8 ± 1.0 %
FPG change from baseline (mean) (type 2 diabetic subjects [1]; [10]): -1.32 ± 3.5 mmol/L
Subjects achieving A1C < 7.0% (type 2 diabetic subjects [1]; [10]): 52.9%
A1C change from baseline (mean) (type 2 diabetic subjects [1]; [11]): −0.79% and −0.8%
FPG change from baseline (mean) (type 2 diabetic subjects [1]; [11]): -1.32 mmol/L
Subjects achieving A1C < 7.0% (type 2 diabetic subjects [1]; [11]): 53%
HbA1c reduction in MET subjects (type 2 diabetic subjects [1]; 50 mg biweekly, 16 weeks): −0.83%
FPG reduction in background metformin (MET) subjects (type 2 diabetic subjects [1]; 50 mg biweekly): -2.10 mmol/L
A1C reduction compared with placebo (ANCOVA model) (type 2 diabetic subjects [1]; 50 mg biweekly): −0.57%
FPG change from baseline compared with placebo (type 2 diabetic subjects [1]; 50 mg biweekly): -1.16 mmol/L
A1C change from baseline (mean) (type 2 diabetic subjects [1]; 50 mg monthly sc): −0.55%
FPG change from baseline (mean) (type 2 diabetic subjects [1]; 50 mg monthly sc): -0.72 ± 2.8 mmol/L
Subjects achieving A1C < 7.0% (type 2 diabetic subjects [1]; 50 mg monthly sc): 22.9%
A1C change from baseline (mean) (type 2 diabetic subjects [1]; 50 mg monthly sc, listed as ALB): −0.6 ± 1.0%
MET patients achieving HbA1c <7% (type 2 diabetic subjects [1]; 100 mg monthly): 46%
A1C change from baseline (mean) (type 2 diabetic subjects [1]; 100 mg monthly sc): −0.87 ± %
A1C change from baseline (mean) (type 2 diabetic subjects [1]; [12]): −0.9 ± 0.9 %
FPG change from baseline (mean) (type 2 diabetic subjects [1]; [12]): -1.22 ± 3.5 mmol/L
Subjects achieving A1C < 7.0% (type 2 diabetic subjects [1]; [12]): 48.4%
A1C change from baseline (mean) (type 2 diabetic subjects [1]; [13]): −0.87% and −0.9%
FPG change from baseline (mean) (type 2 diabetic subjects [1]; [13]): -1.22 mmol/L
Subjects achieving A1C < 7.0% (type 2 diabetic subjects [1]; [13]): 48%
HbA1c reduction in MET subjects (type 2 diabetic subjects [1]; 100 mg monthly, 16 weeks): −0.77%
FPG reduction in background metformin (MET) subjects (type 2 diabetic subjects [1]; 100 mg monthly): -1.80 mmol/L
A1C reduction compared with placebo (ANCOVA model) (type 2 diabetic subjects [1]; 100 mg monthly): −0.60%
FPG change from baseline compared with placebo (type 2 diabetic subjects [1]; 100 mg monthly): -1.17 mmol/L
Mean systolic and diastolic blood pressure (type 2 diabetic subjects [1]; 16-week trial): tended to reduce
Plasma lipoprotein profile (type 2 diabetic subjects [1]; 16-week trial): did not significantly change
Weight loss (type 2 diabetic subjects [1]; MET group, 16 weeks): −0.4 to −2.1 kg
Average weight loss (type 2 diabetic subjects [1]; highest dose regimens in each timing schedule, 16 weeks): −1.1 to −1.7 kg
A1C reduction from a mean baseline A1C of 8.0% (type 2 diabetic subjects [1]; maximum doses of each schedule (30 mg weekly, 50 mg biweekly, 100 mg monthly)): 0.8-0.9%
Weight loss (type 2 diabetic subjects [1]; overall population, 16 weeks): −0.9 to −1.8 kg
β-cell function (assessed by HOMA-B) (type 2 diabetic subjects [1]; subjects receiving albiglutide): Small improvements
Documented hypoglycemia (type 2 diabetic subjects [2]): 0-3.1%
Documented hypoglycemia (in words) (type 2 diabetic subjects [2]): not increased
Injection site local skin reactions (type 2 diabetic subjects [2]): 2.9-28.2%
Subjects positive for anti-albiglutide antibodies ([3]; 8 subjects in placebo and albiglutide arms, incl. 1 on placebo and 2 positive at baseline, through week 27): 2.5%
Character of anti-albiglutide antibodies ([3]; antibody-positive subjects): non-neutralizing, low-titer
Steady state achieved after ([4]; 30 mg weekly): 4-5 doses
Tmax ([4]; albiglutide sc): ~72 h
Half-life ([4]; sc, type 2 diabetic subjects): ~120 h
Time to steady state levels after the first dose ([4]; sc, type 2 diabetic subjects): 4-5 weeks
Half-life ([4]; sc, type 2 diabetic subjects, listed as SEQ ID NO:1): about 5 days
A1C, PBO-adjusted change from baseline (LS Means Difference) ([5]; 15 mg weekly, day 29): −0.58*/ %
FPG, PBO-adjusted change from baseline (LS Means Difference) ([5]; 15 mg weekly, day 29): −34.5* mg/dL
A1C, PBO-adjusted change from baseline (LS Means Difference) ([5]; 15 mg weekly, day 43): −0.87* %
A1C, PBO-adjusted change from baseline (LS Means Difference) ([5]; 30 mg weekly, day 29): −0.57*/ %
FPG, PBO-adjusted change from baseline (LS Means Difference) ([5]; 30 mg weekly, day 29): −35.6* mg/dL
A1C, PBO-adjusted change from baseline (LS Means Difference) ([5]; 30 mg weekly, day 43): −0.78* %
A1C, PBO-adjusted change from baseline (LS Means Difference) ([5]; 50 mg biweekly, day 29): −0.63*/ %
FPG, PBO-adjusted change from baseline (LS Means Difference) ([5]; 50 mg biweekly, day 29): −31.3* mg/dL
A1C, PBO-adjusted change from baseline (LS Means Difference) ([5]; 50 mg biweekly, day 43): −0.79* %
A1C, PBO-adjusted change from baseline (LS Means Difference) ([5]; 100 mg monthly, day 29): −0.51*/ %
FPG, PBO-adjusted change from baseline (LS Means Difference) ([5]; 100 mg monthly, day 29): -13.2 mg/dL
A1C, PBO-adjusted change from baseline (LS Means Difference) ([5]; 100 mg monthly, day 43): −0.59* %
Onset of improvement of FPG and weighted mean AUC0-4 glucose ([5]; Japanese subjects): improved as early as day 3
CL/F [6]: 68.7 mL/h
Plasma t1/2 [6]: 127 h
V/F [6]: 12.6 L
Nausea (AE incidence) ([7]; 100 mg monthly group, n=2): 25%
Flatulence (AE incidence) ([7]; 100 mg monthly group, n=3): 38%
Vomiting (AE incidence) ([7]; 100 mg monthly group, n=3): 38%
Serious AEs ([7]; all doses, 28 days): No serious AEs
Tolerability ([7]; all doses, 28 days): generally well-tolerated
Permeability to the central nervous system [8]: relatively impermeant

From patent US8748377B2, “Pharmaceutical compositions” (GlaxoSmithKline LLC, priority 2008, dated 2014)
